From paper PMC6265310, “Purification, Characterization and in vitro Evaluation of Polymyxin A From Paenibacillus dendritiformis: An Underexplored Member of the Polymyxin Family” (Frontiers in Microbiology, 2018)
Values after ≈ are worked out from the molar mass of the structure shown. Where two headings read alike, the source gives them in different places. Where a SMILES comes first, the peptide text is derived from it. Bridges are numbered along the chain shown (N, C = ends). [ ]: non-standard residue; d: D form. The star is where a group is joined. X1 = CC[C@H](C)CCCCC(=O)*; dDab = NCC[C@@H](N)C(=O)O; Dab = NCC[C@H](N)C(=O)O

How the values were obtained:
[1] = test system: human embryonic kidney cell line (HEK293 ATCC CRL-1573); type: cell-based
Procedure: (§1) 3-(4,5-dimethylthiazol-2-yl)-2,5-diphenyltetrazolium bromide (MTT) assay was employed to examine the cytotoxicity against human leukemic monocyte cell line (THP-1 ATCC TIB-202) and human embryonic kidney cell line (HEK293 ATCC CRL-1573) as explained by [Kaur et al. (2017)]. Toxicity of both compounds was compared with polymyxin B and colistin at concentrations ranging from 62.5 to1000 μg/ml.

[2] = test system: human leukemic monocyte cell line (THP-1 ATCC TIB-202); type: cell-based
Procedure: as §1

[3] = test system: Acinetobacter baumannii ATCC 19606; details: Acinetobacter baumannii ATCC 19606; Ca-MHB, 37°C, 20–24 h
[4] = test system: Escherichia coli ATCC 25922; details: Escherichia coli ATCC 25922
[5] = test system: Escherichia coli ATCC 35218; details: Escherichia coli ATCC 35218
[6] = test system: Klebsiella pneumoniae ATCC BAA1706; details: Klebsiella pneumoniae ATCC BAA1706
[7] = test system: Klebsiella pneumoniae ATCC 700603; details: Klebsiella pneumoniae ATCC 700603
[8] = test system: Klebsiella pneumoniae ATCC 29665; details: Klebsiella pneumoniae ATCC 29665
[9] = test system: Klebsiella pneumoniae ATCC- BAA 2146; details: Klebsiella pneumoniae ATCC- BAA 2146
[10] = test system: Pseudomonas aeruginosa ATCC 27853; details: Pseudomonas aeruginosa ATCC 27853
[11] = test system: Vibrio parahaemolyticus ATCC17802
[12] = test system: Vibrio cholerae MTCC 3906
[13] = test system: Bacillus subtilis ATCC 6633; details: Bacillus subtilis ATCC 6633
[14] = test system: Staphylococcus aureus ATCC 25923; details: Staphylococcus aureus ATCC 25923
[15] = test system: Enterococcus faecalis ATCC 51299; details: Enterococcus faecalis ATCC 51299
P. aeruginosa ATCC 27853 = experiment: Time-kill kinetics; type: cell-based; details: P. aeruginosa ATCC 27853, 2xMIC
[16] = test system: LPS (E. coli strain 055:B5 origin); type: binding; details: read-out: Dissociation constant (Kd)
[17] = THP-1 cells, MTT, 62.5 to 1000 μg/ml

CC[C@H](C)CCCCC(=O)N[C@@H](CCN)C(=O)N[C@H](C(=O)N[C@H](CCN)C(=O)N[C@H]1CCNC(=O)[C@H]([C@@H](C)O)NC(=O)[C@H](CCN)NC(=O)[C@H](CCN)NC(=O)[C@H]([C@@H](C)O)NC(=O)[C@@H](CC(C)C)NC(=O)[C@H](CCN)NC1=O)[C@@H](C)O [P2, polymyxin A1] (X1-[Dab]T[dDab][Dab][Dab][dL]T[Dab][Dab]T; lactam 4-C)
toxicity ranking against HEK cells [1]: highest toxicity among four compounds | IC50 [2]: 500 mg/L (≈ 432 µM) | MIC [3]: 1 mg/L (≈ 0.864 µM) | MIC [4]: 1 mg/L (≈ 0.864 µM) | MIC [5]: 0.5 mg/L (≈ 0.432 µM) | MIC [6]: 1 mg/L (≈ 0.864 µM) | MIC [7]: 1 mg/L (≈ 0.864 µM) | MIC [8]: 1 mg/L (≈ 0.864 µM) | MIC [9]: 1 mg/L (≈ 0.864 µM) | MIC [10]: 1 mg/L (≈ 0.864 µM) | MIC [11]: 1 mg/L (≈ 0.864 µM) | MIC [12]: 8 mg/L (≈ 6.91 µM) | MIC [13]: 8 mg/L (≈ 6.91 µM) | MIC [14]: >16 mg/L | MIC [15]: >16 mg/L | MIC (K. Pneumoniae GMCH 16; GMCH 16): 0.5 mg/L (≈ 0.432 µM) | MIC (K. Pneumoniae GMCH10; GMCH10): 1 mg/L (≈ 0.864 µM) | MIC (K. Pneumoniae 1573; 1573): 0.5 mg/L (≈ 0.432 µM) | MIC (K. Pneumoniae GMCH13; GMCH13): 0.5 mg/L (≈ 0.432 µM) | MIC (K. Pneumoniae GMCH12; GMCH12): 1 mg/L (≈ 0.864 µM) | MIC (K. Pneumoniae 1428; 1428): 2 mg/L (≈ 1.73 µM) | MIC (K. Pneumoniae GMCH04; GMCH04): 0.5 mg/L (≈ 0.432 µM) | MIC (K. Pneumoniae GMCH11; GMCH11): 1 mg/L (≈ 0.864 µM) | MIC (K. Pneumoniae 827; 827): 1 mg/L (≈ 0.864 µM) | MIC (K. Pneumoniae B8; B8): 1 mg/L (≈ 0.864 µM) | MIC (P. aeruginosa GMCH06; GMCH06): 1 mg/L (≈ 0.864 µM) | MIC (P. aeruginosa PA1; PA1): 2 mg/L (≈ 1.73 µM) | MIC (P. aeruginosa PA2; PA2): 2 mg/L (≈ 1.73 µM) | MIC (P. aeruginosa PA3; PA3): 2 mg/L (≈ 1.73 µM) | MIC (P. aeruginosa PA4; PA4): 1 mg/L (≈ 0.864 µM) | MIC (P. aeruginosa PA5; PA5): 2 mg/L (≈ 1.73 µM) | MIC (P. aeruginosa PA6; PA6): 2 mg/L (≈ 1.73 µM) | MIC (E. coli 7534; 7534): 0.5 mg/L (≈ 0.432 µM) | MIC (E. coli 9062; 9062): 1 mg/L (≈ 0.864 µM) | MIC (E. coli 7210; 7210): 1 mg/L (≈ 0.864 µM) | MIC (E. coli 14363; 14363): 0.5 mg/L (≈ 0.432 µM) | MIC (E. coli 7932; 7932): 1 mg/L (≈ 0.864 µM) | MIC (E. coli 3185; 3185): 0.5 mg/L (≈ 0.432 µM) | MIC (E. coli 14504; 14504): 0.5 mg/L (≈ 0.432 µM) | MIC (E. coli 13425; 13425): 1 mg/L (≈ 0.864 µM) | MIC (E. coli 14084; 14084): 0.5 mg/L (≈ 0.432 µM) | MIC (A. baumannii GMCH 14; GMCH 14): 1 mg/L (≈ 0.864 µM) | MIC (A. baumannii GMCH18; GMCH18): 0.5 mg/L (≈ 0.432 µM) | MIC (A. baumannii GMCH05; GMCH05): 1 mg/L (≈ 0.864 µM) | MIC (A. baumannii AB1; AB1): 1 mg/L (≈ 0.864 µM) | MIC (A. baumannii AB2; AB2): 1 mg/L (≈ 0.864 µM)

polymyxin B [PB, reference compound]
time to kill (P. aeruginosa ATCC 27853): 2 h | Kd [16]: 3.39 µM | IC50 [2, 17]: 125 mg/L | MIC [3]: 1 mg/L | MIC [4]: 1 mg/L | MIC [5]: 0.5 mg/L | MIC [6]: 1 mg/L | MIC [7]: 1 mg/L | MIC [8]: 1 mg/L | MIC [9]: 1 mg/L | MIC [10]: 1 mg/L | MIC [11]: 1 mg/L | MIC [12]: 8 mg/L | MIC [13]: 4 mg/L | MIC [14]: 16 mg/L | MIC [15]: >16 mg/L | MIC (K. Pneumoniae GMCH 16): 0.5 mg/L | MIC (K. Pneumoniae GMCH10): 1 mg/L | MIC (K. Pneumoniae 1573): 1 mg/L | MIC (K. Pneumoniae GMCH13): 1 mg/L | MIC (K. Pneumoniae GMCH12): 1 mg/L | MIC (K. Pneumoniae 1428): 2 mg/L | MIC (K. Pneumoniae GMCH04): 0.5 mg/L | MIC (K. Pneumoniae GMCH11): 1 mg/L | MIC (K. Pneumoniae 827): 1 mg/L | MIC (K. Pneumoniae B8): 1 mg/L | MIC (P. aeruginosa GMCH06): 1 mg/L | MIC (P. aeruginosa PA1): 2 mg/L | MIC (P. aeruginosa PA2): 2 mg/L | MIC (P. aeruginosa PA3): 2 mg/L | MIC (P. aeruginosa PA4): 1 mg/L | MIC (P. aeruginosa PA5): 2 mg/L | MIC (P. aeruginosa PA6): 2 mg/L | MIC (E. coli 7534): 1 mg/L | MIC (E. coli 9062): 1 mg/L | MIC (E. coli 7210): 1 mg/L | MIC (E. coli 14363): 0.5 mg/L | MIC (E. coli 7932): 1 mg/L | MIC (E. coli 3185): 0.5 mg/L | MIC (E. coli 14504): 1 mg/L | MIC (E. coli 13425): 1 mg/L | MIC (E. coli 14084): 0.5 mg/L | MIC (A. baumannii GMCH 14): 1 mg/L | MIC (A. baumannii GMCH18): 1 mg/L | MIC (A. baumannii GMCH05): 1 mg/L | MIC (A. baumannii AB1): 1 mg/L | MIC (A. baumannii AB2): 1 mg/L

polymyxin E (colistin) [PE, reference compound]
Kd [16]: 7.04 µM | IC50 ([1]; HEK293 cells, MTT, 62.5 to 1000 μg/ml): above 1000 μg/ml | IC50 [2, 17]: > 250 mg/L | MIC [3]: 1 mg/L | MIC [4]: 1 mg/L | MIC [5]: 0.5 mg/L | MIC [6]: 0.5 mg/L | MIC [7]: 1 mg/L | MIC [8]: 0.5 mg/L | MIC [9]: 0.5 mg/L | MIC [10]: 1 mg/L | MIC [11]: 1 mg/L | MIC [12]: >16 mg/L | MIC [13]: 16 mg/L | MIC [14]: >16 mg/L | MIC [15]: >16 mg/L | MIC (K. Pneumoniae GMCH 16; K. Pneumoniae GMCH 16, MDR clinical isolate): 1 mg/L | MIC (K. Pneumoniae GMCH10; K. Pneumoniae GMCH10, MDR clinical isolate): 1 mg/L | MIC (K. Pneumoniae 1573; K. Pneumoniae 1573, MDR clinical isolate): 1 mg/L | MIC (K. Pneumoniae GMCH13; K. Pneumoniae GMCH13, MDR clinical isolate): 1 mg/L | MIC (K. Pneumoniae GMCH12; K. Pneumoniae GMCH12, MDR clinical isolate): 1 mg/L | MIC (K. Pneumoniae 1428; K. Pneumoniae 1428, MDR clinical isolate): 2 mg/L | MIC (K. Pneumoniae GMCH04; K. Pneumoniae GMCH04, MDR clinical isolate): 0.5 mg/L | MIC (K. Pneumoniae GMCH11; K. Pneumoniae GMCH11, MDR clinical isolate): 0.5 mg/L | MIC (K. Pneumoniae 827; K. Pneumoniae 827, MDR clinical isolate): 1 mg/L | MIC (K. Pneumoniae B8; K. Pneumoniae B8, MDR clinical isolate): 1 mg/L | MIC (P. aeruginosa GMCH06; P. aeruginosa GMCH06, MDR clinical isolate): 1 mg/L | MIC (P. aeruginosa PA1; P. aeruginosa PA1, MDR clinical isolate): 2 mg/L | MIC (P. aeruginosa PA2; P. aeruginosa PA2, MDR clinical isolate): 2 mg/L | MIC (P. aeruginosa PA3; P. aeruginosa PA3, MDR clinical isolate): 2 mg/L | MIC (P. aeruginosa PA4; P. aeruginosa PA4, MDR clinical isolate): 1 mg/L | MIC (P. aeruginosa PA5; P. aeruginosa PA5, MDR clinical isolate): 2 mg/L | MIC (P. aeruginosa PA6; P. aeruginosa PA6, MDR clinical isolate): 2 mg/L | MIC (E. coli 7534; E. coli 7534, MDR clinical isolate): 0.5 mg/L | MIC (E. coli 9062; E. coli 9062, MDR clinical isolate): 1 mg/L | MIC (E. coli 7210; E. coli 7210, MDR clinical isolate): 1 mg/L | MIC (E. coli 14363; E. coli 14363, MDR clinical isolate): 0.5 mg/L | MIC (E. coli 7932; E. coli 7932, MDR clinical isolate): 1 mg/L | MIC (E. coli 3185; E. coli 3185, MDR clinical isolate): 0.5 mg/L | MIC (E. coli 14504; E. coli 14504, MDR clinical isolate): 1 mg/L | MIC (E. coli 13425; E. coli 13425, MDR clinical isolate): 1 mg/L | MIC (E. coli 14084; E. coli 14084, MDR clinical isolate): 0.5 mg/L | MIC (A. baumannii GMCH 14; A. baumannii GMCH 14, MDR clinical isolate): 1 mg/L | MIC (A. baumannii GMCH18; A. baumannii GMCH18, MDR clinical isolate): 1 mg/L | MIC (A. baumannii GMCH05; A. baumannii GMCH05, MDR clinical isolate): 1 mg/L | MIC (A. baumannii AB1; A. baumannii AB1, MDR clinical isolate): 1 mg/L | MIC (A. baumannii AB2; A. baumannii AB2, MDR clinical isolate): 1 mg/L
